Source: article PMC3009740 (PLoS ONE, 2010)
Numbering of substitutions follows the chain as printed. Where two headings read alike, the source gives them in different places.

Columns and labels:
CHO hM1 cells = assay: Protein content (method of Bradford) of CHO hM1 cells after pretreatment; assay type: cell-based, Chinese hamster
Source text: In order to account for these variances, the method of Bradford was used to quantify changes in protein content in CHO hM1 cells. […] This is in contrast to the complete inhibition of binding observed prior to prolonged waiting.

[1] = target: T1, human M1 muscarinic acetylcholine receptor (Homo sapiens, UniProt P11229); assay: cell-based
T1 sequence (P11229 1-460): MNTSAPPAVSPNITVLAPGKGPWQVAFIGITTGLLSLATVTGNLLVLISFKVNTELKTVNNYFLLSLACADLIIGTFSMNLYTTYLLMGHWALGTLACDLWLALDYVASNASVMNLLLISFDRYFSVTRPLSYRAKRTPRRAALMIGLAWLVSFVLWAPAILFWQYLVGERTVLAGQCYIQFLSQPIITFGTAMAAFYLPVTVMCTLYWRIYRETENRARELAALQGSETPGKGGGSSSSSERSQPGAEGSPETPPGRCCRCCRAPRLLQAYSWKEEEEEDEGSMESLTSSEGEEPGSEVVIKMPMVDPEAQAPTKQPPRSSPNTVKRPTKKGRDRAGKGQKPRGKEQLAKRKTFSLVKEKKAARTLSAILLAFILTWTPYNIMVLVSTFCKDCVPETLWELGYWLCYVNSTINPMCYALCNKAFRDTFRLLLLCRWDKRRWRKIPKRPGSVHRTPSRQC
Method: (§1) Labeled cells were harvested by trypsinization, centrifuged, and washed three times in HEPES buffer to remove unincorporated myo-[^3H]inositol. Labeled cells were distributed to assay tubes (500,000 cells/tube), and allowed to incubate for 15 min at 37°C. […] In all cases, the reaction was allowed to proceed in the presence of 10 mM LiCl for 1 h at 37°C after the addition of agonist before being stopped with chloroform/methanol (2∶1) and centrifuged (450×g; 15 min).
Alternatively, cells were grown in 24-well plates and loaded with myo-[^3H]inositol as described above. […] In all cases, the reaction was stopped with 0.3 M HClO4, neutralized with 0.15 M K2CO3, and samples were centrifuged (1500×g; 15 min).
(§2) For all experiments, [^14C]inositol-1-phosphate was added to each sample as an internal recovery standard. Total inositol phosphates were separated by ion exchange chromatography (AG1-X8 resin). The amount of radioactivity (disintegrations per minute) in each sample was determined by liquid scintillation spectrometry and adjusted for ^14C recovery.
(§3) In functional assays of PI hydrolysis, raw data were corrected for ^14C recovery to account for individual column differences in efficiency. Individual concentration-response curve data were fitted to a four-parameter logistic function using Prism to obtain estimates of EC50 (half-effective concentration) and Emax.

[2] = target: T2, rat M1 mutant^123 muscarinic acetylcholine receptor (Rattus norvegicus, UniProt P08482); details: mutant^123 cells stimulated with agonist (data not shown)
T2 sequence (P08482 1-460): T1 sequence (P11229 1-460) with A5V, T254S, P309S, R320K, A337G, I413V
Method: as §1, §2, §3

[3] = target: T3, rat M1 wild-type muscarinic acetylcholine receptor (Rattus norvegicus, UniProt P08482); details: naïve CHO rM1 cells
T3 sequence (P08482 1-460): T1 sequence (P11229 1-460) with A5V, T254S, P309S, R320K, A337G, I413V
Method: as §1, §2, §3

[4] = target: T3, rat M1 wild-type muscarinic acetylcholine receptor
[5] = target: T2, rat M1 mutant^123 muscarinic acetylcholine receptor
[6] = target: T3, rat M1 wild-type muscarinic acetylcholine receptor; details: washout, control 2200±90
[7] = target: T2, rat M1 mutant^123 muscarinic acetylcholine receptor; details: washout, control 2700±300
[8] = 1 h pretreatment, washout, 23 h wait

## C[N+](C)(C)CCOC(N)=O [carbachol]
CHO hM1 cells; 24-h pretreatment, at 10 mM carbachol
  maximal decrease in protein content: 26±6.6%

## O=C1CCCN1CC#CCN1CCCC1 [oxotremorine]
[1]
  Emax, maximal accumulation of inositol phosphates: 10000±800 dpm
  increase in the EC50 of agonist-stimulated PI hydrolysis: 32 fold
[1]; pEC50 of PI hydrolysis
  EC50: 0.2 µM

## CCCCCCOc1nsnc1C1=CCCN(C)C1 [xanomeline, 3-[3-hexyloxy-1,2,5-thiadiazo-4-yl]-1,2,5,6-tetrahydro-1-methylpyridine]
[2]
  PI response: did not produce a significant PI response
[3]
  Emax, maximal response: 18000±5500 dpm
CHO hM1 cells; 1-h pretreatment followed by washing and prolonged waiting, at 10 µM xanomeline
  maximal decrease in protein content: 32±2%
CHO hM1 cells; 24-h pretreatment, at 10 µM xanomeline
  maximal decrease in protein content: 65±7%
[4]; 1 h pretreatment, washout
  Imax, maximal percentage inhibition of [3H]NMS binding: 95±0.5%
[4]; [8]
  Imax, maximal percentage inhibition of [3H]NMS binding: 99±2.3%
  percentage of high-affinity binding sites: 74±1.1%
[4]; 24 h pretreatment, washout
  Imax, maximal percentage inhibition of [3H]NMS binding: 97±0.5%
  percentage of high-affinity binding sites: 47±7.7%
[4]; Control: naïve cells
  Imax, maximal percentage inhibition of [3H]NMS binding: 99±0.6%
[5]; 1 h pretreatment, washout
  Imax, maximal percentage inhibition of [3H]NMS binding: 96±0.7%
[5]; [8]
  Imax, maximal percentage inhibition of [3H]NMS binding: 60±7.4 %
[5]; 24 h pretreatment, washout
  Imax, maximal percentage inhibition of [3H]NMS binding: 90±2.9%
[5]; Control: naïve cells
  Imax, maximal percentage inhibition of [3H]NMS binding: 99±0.5%
[6]; 3 µM xanomeline 1 h, 23 h wait
  Bmax, maximal cell-surface receptor density: 1100±150 dpm/100,000 cells
[6]; 3 µM xanomeline 1 h
  Bmax, maximal cell-surface receptor density: 2600±430 dpm/100,000 cells
[6]; 3 µM xanomeline 24 h
  Bmax, maximal cell-surface receptor density: 1300±150 dpm/100,000 cells
[7]; 3 µM xanomeline 1 h, 23 h wait
  Bmax, maximal cell-surface receptor density: 3400±610 dpm/100,000 cells
[7]; 3 µM xanomeline 1 h
  Bmax, maximal cell-surface receptor density: 3000±380 dpm/100,000 cells
[7]; 3 µM xanomeline 24 h
  Bmax, maximal cell-surface receptor density: 3600±320 dpm/100,000 cells
